Our source for the IC50 values is PubChem BioAssay AID652123 (The Scripps Research Institute Molecular Screening Center, 2013).

SMILES strings stand for the structures. Activity calls are given as the source filed them. How the calls were made is not given here.

The target of this assay is Hepatocyte nuclear factor 4-alpha (Homo sapiens) (UniProt P41235). Briefly: HNF4 dimerization inhibitors, dose response, counter-screen for ABHD5-PLIN5 interaction inhibitor project, biochemical, luminescence, round 2 (AID 652123). As to conditions: HNF4 dimerization biochemical luminescence assay. In general terms: Counterscreens check selectivity or assay interference.
Hepatocyte nuclear factor 4-alpha (Homo sapiens), sequence (P41235 whole entry, looked up): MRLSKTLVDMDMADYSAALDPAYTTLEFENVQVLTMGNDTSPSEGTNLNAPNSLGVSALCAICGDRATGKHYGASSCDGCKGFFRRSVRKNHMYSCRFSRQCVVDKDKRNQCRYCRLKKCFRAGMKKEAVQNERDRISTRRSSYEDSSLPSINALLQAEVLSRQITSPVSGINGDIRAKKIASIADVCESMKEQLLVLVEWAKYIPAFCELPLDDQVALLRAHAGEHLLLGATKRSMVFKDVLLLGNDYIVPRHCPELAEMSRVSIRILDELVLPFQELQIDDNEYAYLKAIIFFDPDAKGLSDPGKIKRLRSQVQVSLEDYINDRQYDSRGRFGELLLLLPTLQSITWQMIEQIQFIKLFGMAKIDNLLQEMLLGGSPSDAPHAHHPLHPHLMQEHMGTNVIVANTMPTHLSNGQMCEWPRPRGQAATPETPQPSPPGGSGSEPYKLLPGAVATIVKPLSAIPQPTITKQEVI
For the compound `O=C(Cc1ccc2c(c1)CCCC2)N1CCN(S(=O)(=O)c2ccc3c(c2)OCCO3)CC1`, the IC50 (usually the concentration that inhibits the measured activity by half) is “inactive”.
As for `CN(C)CCCN(C(=O)C1CCCCC1)c1nc2cc(Cl)ccc2s1`, the figure is > 39.8 µM (inactive).
As for `COc1ccc(CC(=O)N2CCCN(S(=O)(=O)c3ccc(C)cc3)CC2)cc1OC`, the figure is > 39.8 µM (inactive); as for `CCCC(=O)Nc1ccc2c(c1)C(=O)N(C)c1ccccc1O2`, > 39.8 µM (inactive).
As for `CCCC(=O)N(CCCN1CCOCC1)c1nc2ccc(Cl)cc2s1`, the figure is > 39.8 µM (inactive); as for `CCS(=O)(=O)c1ncc(Cl)c(C(=O)Nc2ccc(S(N)(=O)=O)cc2)n1`, 5.08 µM.
Turning to `CS(=O)(=O)c1ncc(Cl)c(C(=O)Nc2ccc(C(F)(F)F)cc2)n1`, the IC50 is 1.15 µM.
As for `CCCS(=O)(=O)c1ccc(Cl)c(C(=O)Nc2ccc(C(=O)OCC)cc2)c1`, the figure is 5.66 µM.
For `CCCNC(=O)Nc1ccc2c(c1)N(CC)C(=O)c1ccccc1S2`, the IC50 is > 39.8 µM (inactive).
The result for `CN(C)CCCN(C(=O)CCc1ccccc1)c1nc2ccc(Cl)cc2s1` reads > 39.8 µM (inactive); that for `Cc1ccc2c(CC(=O)N3CCN(S(=O)(=O)c4ccc5c(c4)OCCCO5)CC3)coc2c1C`, > 39.8 µM (inactive).
Take `CC(NC(=O)CN1CCN(S(=O)(=O)c2ccc3c(c2)OCCCO3)CC1)c1cc2ccccc2o1` (centres undefined): the IC50 was > 39.8 µM (inactive).
Turning to `CN(C)CCCN(C(=O)c1cc2ccccc2oc1=O)c1nc2ccc(Cl)cc2s1`, the IC50 is > 39.8 µM (inactive).
Consider `CCCCCCCNC(=O)Nc1ccc2c(c1)Sc1ccccc1C(=O)N2C`, for which the IC50 was > 39.8 µM (inactive).
As for `CN(C(=O)c1nc(S(C)(=O)=O)ncc1Cl)c1ccccc1`, the figure is 1.38 µM; as for `CCCS(=O)(=O)c1ncc(Cl)c(C(=O)Nc2ccc(C(=O)OC)cc2)n1`, 4.99 µM; as for `CN(C)CCCN(C(=O)C1CCCCC1)c1nc2cc(Br)ccc2s1`, > 39.8 µM (inactive).
The result for `CCCC(=O)Nc1ccc2c(c1)C(=O)N(C)c1cc(C)ccc1O2` reads > 39.8 µM (inactive); that for `O=C(Nc1ccc2ccccc2c1)c1nc(S(=O)(=O)Cc2ccccc2)ncc1Cl`, 2.42 µM; that for `Cc1ccc(CS(=O)(=O)c2ncc(Cl)c(C(=O)Nc3cccc(C(F)(F)F)c3)n2)cc1`, 3.09 µM.
The result for `COc1ccc(CCNC(=O)c2nc(S(=O)(=O)Cc3ccc(F)cc3)ncc2Cl)cc1OC` reads 1.94 µM; that for `Cc1ccc(CS(=O)(=O)c2ncc(Cl)c(C(=O)Nc3cccc4ccccc34)n2)cc1`, 2.79 µM; that for `CC(C)N1C(=O)c2ccccc2Oc2ccc(NC(=O)c3ccccc3)cc21`, > 39.8 µM (inactive).
`CCCCCNC(=O)Nc1ccc2c(c1)Sc1ccccc1C(=O)N2C`: the IC50 was > 39.8 µM (inactive).
The result for `CCS(=O)(=O)c1ncc(Cl)c(C(=O)Nc2ccc(C)cc2)n1` reads 4.01 µM.
The result for `CN1C(=O)c2ccccc2Sc2ccc(NC(=O)NCCc3ccccc3)cc21` reads > 39.8 µM (inactive); that for `Cc1ccc(NC(=O)c2nc(S(C)(=O)=O)ncc2Cl)cc1`, 2.44 µM.
As for `O=C(Cc1cccc(F)c1)N1CCN(S(=O)(=O)c2ccc3c(c2)OCCO3)CC1`, the figure is > 39.8 µM (inactive); as for `Cc1ccc(CS(=O)(=O)c2ncc(Cl)c(C(=O)N3CCN(C)CC3)n2)cc1`, 2.17 µM.
In the case of `NS(=O)(=O)c1ccc(NC(=O)c2nc(S(=O)(=O)Cc3ccccc3)ncc2Cl)cc1`, the IC50 was 3.81 µM.
As for `Cc1ccc(CS(=O)(=O)c2ncc(Cl)c(C(=O)NCc3ccc4c(c3)OCO4)n2)cc1`, the figure is 1.87 µM; as for `CN1C(=O)c2ccccc2Sc2ccc(NC(=O)NCCc3cccs3)cc21`, > 39.8 µM (inactive).
With `O=C(c1nc(S(=O)(=O)Cc2ccccc2)ncc1Cl)N(Cc1ccccc1)Cc1ccco1`, the half-inhibitory concentration (IC50) is 1.35 µM.
The result for `CN(C)CCCN(C(=O)Cc1ccc(F)cc1)c1nc2ccc(Cl)cc2s1` reads > 39.8 µM (inactive).
On to `CCCCCCNC(=O)Nc1ccc2c(c1)Sc1ccccc1C(=O)N2C`, for which the IC50 was > 39.8 µM (inactive).
On to `Cc1ccc(CS(=O)(=O)c2ncc(Cl)c(C(=O)Nc3nnc(C(C)C)s3)n2)cc1`, for which the IC50 was > 39.8 µM (inactive).
As for `CN1C(=O)c2ccccc2Oc2ccc(NC(=O)c3cccs3)cc21`, the IC50 was > 39.8 µM (inactive).
As for `CN1C(=O)c2ccccc2Sc2ccc(NC(=O)NCCCc3ccccc3)cc21`, the figure is > 39.8 µM (inactive).
With `CN1C(=O)c2ccccc2Oc2ccc(NC(=O)c3cc4ccccc4[nH]3)cc21`, the IC50 is > 39.8 µM (inactive).
